# Assay results: paper PMC9131871, “Impact of Micropolymorphism Outside the Peptide Binding Groove in the Clinically Relevant Allele HLA-C*14 on T Cell Responses in HIV-1 Infection” (Journal of Virology, 2022)
# Entries after “also recorded” stand apart in the source; their conditions may differ.
# How the values were obtained:
# [1] = system: PBMCs from HIV-1-infected HLA-C*14:02+ or HLA-C*14:03+ individuals; experiment: ex vivo IFN-γ ELISPOT assay; format: cell-based, human; conditions: 1 μM peptide; for HLA-C*14 subtype of the individuals in whom responses were detected: initial screening, 10 HLA-C*14:02+ and 10 HLA-C*14:03+ individuals
# From the text: To clarify whether these HLA-C*14:02- and C*14:03-binding HIV-1 peptides were T cell epitopes, we investigated T cell responses to these peptides in HIV-1-infected individuals. We assessed T cell targeting of 14 putative HIV-1 epitope sites by testing responses to the 14 NL4-3 sequence-based peptides and 9 variant peptides in 10 HLA-C*14:02^+ and 10 HLA-C*14:03^+ treatment-naive individuals living with HIV-1 subtype B using ex vivo gamma interferon (IFN-γ) ELISPOT assays. To identify HLA-C*14-restricted immunodominant epitopes, we investigated whether these peptides were recognized by virus-specific T cells in 20 individuals enabling detection of epitopes typically targeted in >5% of HLA-C*14^+ individuals. […] T cell responses to variant versions of the Gag LY9, Pol KM9, and Nef IF8 peptides were detected in a number of individuals similar to the number with responses to their NL4-3 sequence-based counterparts (Fig. 3A).
# FIG 3 T cell responses to HLA-C*14:02- and/or HLA-C*14:03-binding HIV-1 peptides. (A) T cell responses to HLA-C*14:02/03-binding peptides in 20 chronically HIV-1-infected Japanese individuals with HLA-C*14:02 or HLA-C*14:03. T cell targeting of 14 putative epitopes was analyzed by testing responses to 14 NL4-3 sequence-based peptides and 9 peptides that were sequence variants thereof in ex vivo IFN-γ ELISPOT assays (peptides tested at a concentration of 1 μM). A positive response was defined as >100 spots/10^6 PBMCs (indicated by the horizontal dotted line). (B) Correlation between peptide binding to HLA-C*14:02 or HLA-C*14:03 and the frequency of responders to these peptides in HLA-C*14:02^+ (blue) and HLA-C*14:03^+ (red) individuals for NL4-3 sequence-based versions of the peptides only (left) or both NL4-3 sequence-based and variant peptides (right). Statistical analyses were performed using Pearson's correlation test.
# PBMCs were separated from whole blood and stored at −80°C. ELISPOT assays were performed as previously described ([13]). Briefly, 1 × 10^5 PBMCs from HIV-1-infected individuals and a 1 μM concentration of each HLA-C*14:02- and -C*14:03-eluted HIV-1 peptide were added to 96-well polyvinylidene plates (Millipore) that had been coated overnight with 5 μg/mL anti-IFN-γ MAb 1-D1K (Mabtech). The plates were incubated for 16 h at 37°C in 5% CO2, and then the cells were stained as previously described in detail ([13]). The spots were counted with an Eliphoto-Counter instrument (Minerva Teck). The number of spots was calculated per 10^6 PBMCs; 100 spots/10^6 PBMCs was defined as a positive response, as described previously ([13]).
# HLA-C*14:03 = HLA-C*14:03 (Homo sapiens, UniProt P10321, A176E/A330V/A35S/A97T/C350S/D114A/D33S/L171W/L180R/L218V/M285V/M309V/M331V/P208H/Q277E/Q291P/R121W/R243W/R45H/S123F/S297R/S48A/T329A/T363A/V319A); experiment: LC-MS/MS identification of HLA-bound HIV-1 peptides from NL4-3-infected .221-C1403 cells; format: binding; set-up: key: ●: Closed circles indicate the peptide which was identified in HLA-C*1402 or/and -C*1403 expressing cells; conditions: HIV-1 NL4-3-infected .221-C1403 cells, W6/32 immunoprecipitation, two independent replicate experiments
# Protocol: (§1) 721.221 cells expressing CD4 and HLA-C*14:02 (.221-C1402) or HLA-C*14:03 (.221-C1403) were infected with the laboratory-adapted NL4-3 HIV-1 strain. HLA-peptide complexes were isolated from cell lysates by immunoprecipitation with the anti-HLA class I antibody W6/32; then, peptides were eluted, fractionated by high-performance liquid chromatography (HPLC), and finally analyzed by LC-MS/MS. Two independent replicate experiments were performed, in which a total of 7,970 and 8,447 unique 8- to 13-mer peptide sequences were identified from .221-C1402 and .221-C1403 cells, respectively (Fig. 1A). Of these peptides, 6,163 were identified in both the C*14:02- and C*14:03-bound peptide data sets, while other peptides were detected in the acid-eluted fraction from only a single allele. […] These motifs are consistent with the HLA-C*1402/03 peptide motifs previously estimated using reported epitopes ([29]).
# (§2) .221-C1402 and .221-C1403 cells were infected with HIV-1 NL4-3 in a low volume of RPMI 1640 medium (Thermo Fisher) containing 10% fetal bovine serum (FBS), 2 mM L-glutamine, 100 U/mL penicillin, 100 μg/mL streptomycin, and 10 mM HEPES (R10). Fifty microliters of NL4-3 stock virus (Reverse transcriptase activity (RT) value = 4 × 10^2 ng/mL) was added to 8 × 10^6 .221-C1402 cells or .221-C1403, and the cells were then incubated for 1.5 h at 37°C, after which 20 mL of R10 was added and the cells were cultured overnight. At day 1 postinfection, a further 20 mL R10 was added, and cells were split (1:2) on day 2. On day 3 postinfection, the proportion of cells infected with HIV-1 was determined by intracellular p24 staining, as previously described ([46]). Infected flasks were then harvested for immunoprecipitation of HLA-peptide complexes.
# (§3) .221-C1402 cells or .221-C1403 cells infected with NL4-3 (1.5 × 10^8 to 2 × 10^8 cells) were harvested, washed in phosphate-buffered saline (PBS), and lysed in 5 mL of lysis buffer (1% IGEPAL 630, 300 mM NaCl, 100 mM Tris [pH 8.0], plus protease inhibitors) at 4°C for 45 min. Two centrifugation steps (2,000 × g for 10 min followed by 20,000 × g for 30 min at 4°C) were next employed to clear the lysates of cell debris prior to overnight capture of HLA-peptide complexes on W6/32-coated protein A‐Sepharose beads. W6/32-bound HLA-peptide complexes were sequentially washed with 10 to 20 mL of wash buffer 1 (0.005% IGEPAL, 50 mM Tris [pH 8.0], 150 mM NaCl, 5 mM EDTA), wash buffer 2 (50 mM Tris [pH 8.0], 150 mM NaCl), wash buffer 3 (50 mM Tris [pH 8.0], 400 mM NaCl), and finally wash buffer 4 (50 mM Tris [pH 8.0]) under gravity flow in Econo-Column glass chromatography columns (Bio-Rad). Peptide-HLA complexes were eluted from the beads with 5 mL of 10% acetic acid and, after drying under vacuum, were loaded onto a 4.6- by 50-mm ProSwift RP-1S column (Thermo Fisher Scientific) and eluted from an Ultimate 3000 HPLC system (Thermo Scientific) using a 500-μL/min flow rate over 10 min from 2% to 34% buffer B (0.1% trifluoroacetic acid [TFA] in acetonitrile) in buffer A (0.1% TFA in water). Alternate fractions were pooled to give two final peptide fractions that were dried for LC-MS/MS analysis.
# (§4) Each HPLC-eluted sample was resuspended in 20 μL loading buffer, and 9 μL of it was injected onto a 3-μm-particle-size 0.075-mm by 150-mm Acclaim PepMap RSLC C18 column and further loaded onto a 2-μm-particle-size, 75-μm by 50-cm Acclaim PepMap RSLC C18 column using an Ultimate 3000 nUPLC system (Thermo Scientific). A linear gradient of 3 to 25% buffer B (0.1% formic acid, 5% dimethyl sulfoxide [DMSO] in acetonitrile) in buffer A (0.1% formic acid, 5% DMSO in water) was applied over 1 h to elute peptides from the column (flow rate of […]). Peptides were introduced, using an Easy-Spray source at 2,000 V at 40°C, into a Fusion Lumos mass spectrometer (Thermo Scientific). The ion transfer tube temperature was set to 305°C. […]
# HLA-C*14:02 = HLA-C*14:02 (Homo sapiens, UniProt P10321, A176E/A330V/A35S/A97T/C350S/D114A/D33S/L171W/L180R/L218V/M285V/M309V/M331V/P208H/Q277E/Q291P/R121W/R243W/S123F/S297R/S48A/T329A/T363A/V319A); experiment: LC-MS/MS identification of HLA-bound HIV-1 peptides from NL4-3-infected .221-C1402 cells; format: binding; set-up: key: ●: Closed circles indicate the peptide which was identified in HLA-C*1402 or/and -C*1403 expressing cells; conditions: HIV-1 NL4-3-infected .221-C1402 cells, W6/32 immunoprecipitation, two independent replicate experiments
# Protocol: as §1, §2, §3, §4
# [2] = 10 HLA-C*14:02+ and 10 HLA-C*14:03+ treatment-naive individuals, positive >100 spots/10^6 PBMCs
Sequence,"T cell responses to peptide detected [1, 2]",C1403: peptide identified by LC-MS/MS in HLA-I eluate (HLA-C*14:03),C1402: peptide identified by LC-MS/MS in HLA-I eluate (HLA-C*14:02),further results
"AFHHMAREK [Nef AL9-5M9K, variant of Nef AL9, …, present in Japanese cohort viruses]",not detected in any of the 20 individuals,–,–,–
"PQGKAREF [Pol PF8, HIV-1 NL4-3 Pol 9–16 peptide PQGKAREF, eluted only, not synthesized]",–,●,–,–
"LFNTVAVLY [Gag LY9-2F5V, variant of Gag LY9, …, present in Japanese cohort viruses]",detected in one or more individuals,–,–,–
"LYNTIAVL [Gag LL8, HIV-1 NL4-3 Gag 78–85 peptide LYNTIAVL eluted from HLA-C*14-expressing cells]",No T cell recognition; also recorded: no strong T cell responses,●,●,–
"VYHTQGYF [Nef IF8-1V, variant of Nef IF8, VYHTQGYF, present in Japanese cohort viruses]",detected in one or more individuals,–,–,–
"SFNISTSI [Env SI8, HIV-1 NL4-3 Env 158–165 peptide SFNISTSI, eluted only, not synthesized]",–,●,–,–
"VWGRDNNSL [Pol VWL9, HIV-1 NL4-3 Pol 33–41 peptide …, eluted only, not synthesized]",–,●,●,–
"AFVTIGKIGNM [Env AM11, HIV-1 NL4-3 Env 316–326 peptide […], eluted only, not synthesized]",–,●,–,–
"FYVDGAANRET [Pol FT11, HIV-1 NL4-3 Pol 595–605 peptide […]]",–,●,–,–
"KYHNNWRAM [Pol KM9-4N, variant of Pol KM9, …, present in Japanese cohort viruses]",detected in one or more individuals,–,–,HLA-C*14 subtype of the individuals in whom responses were detected [1]: detected in only HLA-C*14:02^+ or HLA-C*14:03^+ individuals
"AFPQGKAREF [Pol AF10, HIV-1 NL4-3 Pol 7–16 peptide […], eluted only, not synthesized]",–,●,●,–
"VYYDPSKDLIA [Pol VA11, HIV-1 NL4-3 Pol 472–482 peptide […]]",–,●,–,–
"LFNTVAVL [Gag LL8-2F5V, variant of Gag LL8, LFNTVAVL, present in Japanese cohort viruses]",detected in one or more individuals; also recorded: weak response,–,–,"number of individuals with T cell response, of 20 tested [1, 2]: one; HLA-C*14 subtype of the individuals in whom responses were detected [1]: detected in only HLA-C*14:02^+ or HLA-C*14:03^+ individuals"
"VYLAWVPAH [Pol VH9, HIV-1 NL4-3 Pol 686–694 peptide …]",–,●,–,–
"YTSLIHSLI [Env YI9, HIV-1 NL4-3 Env 638–646 peptide …, eluted only, not synthesized]",–,–,●,–
"VTIGKIGNM [Env VM9, HIV-1 NL4-3 Env 318–326 peptide …, eluted only, not synthesized]",–,–,●,–
"IYHTQGYFP [Nef IP9, HIV-1 NL4-3 Nef 114–122 peptide …]",–,●,●,–
"FHHVAREL [Nef FL8, HIV-1 NL4-3 Nef 191–198 peptide FHHVAREL]",–,●,●,–
